Reference: patent publication US7410989B2, “Compounds, methods and compositions useful for the treatment of bovine viral diarrhea virus (BVDV) infection and hepatitis C virus (HCV) infection” (The University of North Carolina at Chapel Hill, priority 2001, dated 2008)

Tested on: BVDV
Assay: Screening of antiviral compounds for anti-BVDV activity in MDBK cells; virus titre by immunoperoxidase monolayer assay
Format: cell-based, bovine viral diarrhea virus
Conditions: 12.5 μM compound; for Day 7 Cell Lysates % Control / Day 3 Media % Control / Day 7 Media % Control: titre as % of no-antiviral control; for Day 3 Media TCID50/mL / Day 3 Media % Control / Day 7 Media TCID50/mL / Day 7 Media % Control: culture medium
Protocol: 2.0 cm^2 wells in a 24-well plate were seeded with 50 μl of medium from 12 ml of MEM-eq (minimum essential medium (MEM) with Earle's salts supplemented with 10% (v/v) equine serum, sodium bicarbonate (0.75 mg/ml), L-glutamine (0.29 mg/ml), penicillin G (100 U/ml), streptomycin (100 μg/ml), and amphotericin B (0.25 μg/ml)), which was derived by trypsinization of a confluent monolayer of Madin Darby Bovine Kidney (MDBK) cells in a 25 cm^2 flask. Cells were incubated at 38.5° C. with 5% CO2 for 24 hours. The average number of cells per well was determined and later used to calculate appropriate multiplicities of infection (MOI) of BVDV virus. […]
The inoculated cells incubated for one hour at 38.5° C. with 5% CO2 in humidified air. The medium was removed from the wells, and the cells washed one time with Ca^2+ and Mg^2+-free PBS comprising antiviral compound (12.5 μM) (cells in the wells not initially treated with antiviral compounds were washed without antiviral compound). […] Three days post-inoculation, medium was removed and stored at −20° C. for assay. […] Seven days post-inoculation, medium was removed and stored at −80° C. for serial dilution & assay.
The MDBK cells were resuspended in MEM-eq with no antiviral compound. Uterine tubal cells (UTC) were freeze-thawed and stored at −80° C. for analysis. UTC lysates were serially diluted with medium from Day 7 and assayed by immunoperoxidase for the presence of BVDV.
All samples were assayed for BVDV using the immunoperoxidase monolayer assay as described in A. Afshar et al., Can J Vet Res; 55:91-93 (1991). Samples were assayed in triplicate by adding 50 μL of MEM-eq containing approximately 2.5×10^3 MDBK cells to 50-μL of each sample supplemented with 50 μL of fresh MEM-eq in a 96-well culture plate. Plates were incubated for 72 h at 38.5° C. in a humidified atmosphere of 5% CO2 and air before the immunoperoxidase labeling technique was performed as follows:
After fixation, potentially infected cells were incubated with monoclonal antibodies D89 (M. L. Vickers et al., J Vet Diagn Invest 2, 300-302 (1990); Xue W et al., J Clin Microbiol 28, 1688-1693 […] specific for E2/gp53, a major envelope glycoprotein of BVDV (Xue W et al., Vet Microbiol 57, 105-118 (1997)) and 20.10.6 specific for NS3-p80, a conserved nonstructural protein (W. V. Corapi et al., Am J Vet Res 51, 1388-1394 (1990)). After washing with PBS and Tween 20 to remove unbound antibodies, peroxidase-conjugated rabbit anti-mouse IgG (Jackson Immuno Research Lab, West Grove, Pa.) was added. After a short incubation period, unbound peroxidase-conjugated antibody was removed by washing with PBS and Tween 20. Finally, the enzyme substrate, aminoethyl carbazole (Zymed Laboratories, Inc., South San Francisco, Calif.), which produces a reddish-brown color when oxidized by horseradish peroxidase, was added. Color change was visualized under light microscopy and compared to known positive and negative controls on each plate.
The tissue culture infective dose 50% (TCID50)/ml of the exposure aliquot was determined by the method of Reed and Muench (L. J. Reed and H. Muench, Am J Hygiene 27, 493-497 (1938). Results of viral detection assays were compared using a Pearson Chi-square test statistic (J. Sall and A. Lehman, JMP Start Statistics (Duxbury Press, Belmont, Calif. (1996), 195-211).

| SMILES | Day 7 Cell Lysates TCID50/mL (BVDV MOI 0.05) [TCID50/mL] | Day 7 Cell Lysates % Control (BVDV MOI 0.05) [%] | Day 3 Media TCID50/mL (BVDV MOI 0.05) [TCID50/mL] | Day 3 Media % Control (BVDV MOI 0.05) [%] | Day 7 Media TCID50/mL (BVDV MOI 0.05) [TCID50/mL] | Day 7 Media % Control (BVDV MOI 0.05) [%] | Day 7 Cell Lysates TCID50/mL (BVDV MOI 1.0) [TCID50/mL] | Day 7 Cell Lysates % Control (BVDV MOI 1.0) [%] | Day 3 Media TCID50/mL (BVDV MOI 1.0) [TCID50/mL] | Day 3 Media % Control (BVDV MOI 1.0) [%] | Day 7 Media TCID50/mL (BVDV MOI 1.0) [TCID50/mL] | Day 7 Media % Control (BVDV MOI 1.0) [%] |
| --- | --- | --- | --- | --- | --- | --- | --- | --- | --- | --- | --- | --- |
| N=C(N)c1ccc(-c2ccc(-c3cccc(C(=N)N)c3)[nH]2)cc1 [DB619] | 1.10E+06 | 55.00 | 3.50E+02 | 0.18 | 2.00E+05 | 38.46 | 3.50E+05 | 56.45 | 6.20E+04 | 17.71 | 3.50E+04 | 100.00 |
| N=C(N)Nc1ccc(-c2ccc(-c3ccc(NC(=N)N)cc3)o2)cc1 [DB673] | 3.50E+04 | 1.75 | 1.00E+02 | 0.05 | 6.20E+03 | 1.19 | 2.70E+05 | 43.55 | 3.50E+02 | 0.10 | 2.00E+05 | 571.43 |
